Seven compounds from article PMC4207660, “Identification and Characterization of Hundreds of Potent and Selective Inhibitors of Trypanosoma brucei Growth from a Kinase-Targeted Library Screening Campaign” (PLoS Neglected Tropical Diseases, 2014) can be followed below.

Structures are written as SMILES. Bounds are passed on as bounds.

The test system of assay [1] is T. brucei brucei parasites (Lister 427 strain). Nature of the assay: Dose response growth inhibition assay (resazurin, 72 h). To be noted: Trypanosoma brucei; read-out: T brucei pEC50 (converted). The class given is cell-based. In general terms: The colour change of resazurin is a common sign of viable cells or microbes.
The target of another assay is T1, IKK1 (Homo sapiens, UniProt O15111).
T1 sequence (O15111 1-745): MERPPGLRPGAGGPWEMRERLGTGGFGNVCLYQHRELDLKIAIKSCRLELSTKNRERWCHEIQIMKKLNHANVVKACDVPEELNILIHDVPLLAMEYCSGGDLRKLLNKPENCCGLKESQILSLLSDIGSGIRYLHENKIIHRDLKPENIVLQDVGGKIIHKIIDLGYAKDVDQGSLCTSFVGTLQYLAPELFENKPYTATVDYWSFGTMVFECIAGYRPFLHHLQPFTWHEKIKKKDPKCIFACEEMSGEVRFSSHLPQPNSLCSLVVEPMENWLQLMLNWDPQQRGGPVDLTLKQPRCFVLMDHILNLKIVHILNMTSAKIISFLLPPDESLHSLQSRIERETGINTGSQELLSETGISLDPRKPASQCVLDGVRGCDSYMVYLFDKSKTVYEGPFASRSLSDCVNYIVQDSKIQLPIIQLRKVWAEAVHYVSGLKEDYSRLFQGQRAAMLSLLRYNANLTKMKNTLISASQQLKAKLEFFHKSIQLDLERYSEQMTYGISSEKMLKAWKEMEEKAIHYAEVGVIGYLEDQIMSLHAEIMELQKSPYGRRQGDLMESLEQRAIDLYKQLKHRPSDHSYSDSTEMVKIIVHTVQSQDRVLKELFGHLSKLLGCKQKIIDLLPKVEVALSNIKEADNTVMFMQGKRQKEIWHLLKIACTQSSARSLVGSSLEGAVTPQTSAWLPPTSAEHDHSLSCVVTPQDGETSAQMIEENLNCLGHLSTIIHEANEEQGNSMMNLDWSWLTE
Briefly: Human kinase selectivity screening: IKK1. It is filed as biochemical. To be noted: read-out: IKK1 pIC50 values (converted). The text has this: (§1) These kinases were chosen for general selectivity screening owing to their broad representation of the human kinome.

The target of another assay is SYK (Homo sapiens, UniProt P43405). Nature of the assay: Human kinase selectivity screening: SYK. It is filed as biochemical. To be noted: read-out: SYK pIC50 values (converted).
Source text: as §1

The next assay concerns the target T2, JAK3 (Homo sapiens, UniProt P52333).
T2 sequence (P52333 1-1124): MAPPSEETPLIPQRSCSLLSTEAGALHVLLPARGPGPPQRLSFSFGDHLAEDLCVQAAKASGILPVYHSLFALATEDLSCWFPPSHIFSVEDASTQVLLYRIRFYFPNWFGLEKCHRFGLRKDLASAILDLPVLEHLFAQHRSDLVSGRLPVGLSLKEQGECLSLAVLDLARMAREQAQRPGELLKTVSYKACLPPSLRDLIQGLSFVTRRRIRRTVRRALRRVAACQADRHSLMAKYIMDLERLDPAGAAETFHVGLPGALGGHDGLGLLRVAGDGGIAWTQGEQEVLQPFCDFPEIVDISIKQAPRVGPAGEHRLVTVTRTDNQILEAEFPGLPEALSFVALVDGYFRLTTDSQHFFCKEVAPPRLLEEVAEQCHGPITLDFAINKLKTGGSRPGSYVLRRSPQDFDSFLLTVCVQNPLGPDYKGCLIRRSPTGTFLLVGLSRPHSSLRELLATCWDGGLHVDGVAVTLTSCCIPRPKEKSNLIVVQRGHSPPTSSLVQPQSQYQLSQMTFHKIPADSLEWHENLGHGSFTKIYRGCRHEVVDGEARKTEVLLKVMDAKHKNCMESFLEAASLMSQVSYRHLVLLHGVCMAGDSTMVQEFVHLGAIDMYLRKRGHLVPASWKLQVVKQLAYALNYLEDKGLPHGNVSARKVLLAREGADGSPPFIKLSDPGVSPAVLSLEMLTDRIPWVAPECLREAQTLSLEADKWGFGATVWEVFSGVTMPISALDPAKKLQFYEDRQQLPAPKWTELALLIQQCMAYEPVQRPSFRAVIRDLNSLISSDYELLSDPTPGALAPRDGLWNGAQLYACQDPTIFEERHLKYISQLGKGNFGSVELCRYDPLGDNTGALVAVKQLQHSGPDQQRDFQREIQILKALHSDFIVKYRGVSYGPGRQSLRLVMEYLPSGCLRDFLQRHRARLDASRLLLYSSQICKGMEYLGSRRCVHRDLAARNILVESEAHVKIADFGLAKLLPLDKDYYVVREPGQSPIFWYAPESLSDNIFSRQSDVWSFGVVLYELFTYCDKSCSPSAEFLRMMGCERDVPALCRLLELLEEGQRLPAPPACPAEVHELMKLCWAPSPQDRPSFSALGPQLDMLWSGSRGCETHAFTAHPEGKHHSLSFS
Briefly: Human kinase selectivity screening: JAK3. The class given is biochemical. To be noted: read-out: JAK3 pIC50 values (converted).
Source text: as §1

In the case of `CN(C)Cc1ccc(-c2[nH]c3ncc(C#N)cc3c2-c2ccccc2)cc1` [NEU-0001206], the EC50 in assay [1] is 100 nM. The figures for the IC50 at IKK1, at SYK and on JAK3 were over 25100 nM, 251 nM and 501 nM, respectively.

For the compound `CCCCc1nc(Nc2cccc(C)c2)c2c(=O)[nH]ccc2n1` [NEU-0001191], the EC50 in assay [1] was 79.4 nM. Further, the values for the IC50 on IKK1, on SYK and on JAK3 were over 25100 nM, 2510 nM and 200 nM, respectively.

Take `CCCNc1nc(Nc2cnn(C)c2)c2c(=O)[nH]ccc2n1` [NEU-0001187]: the EC50 in assay [1] was 79.4 nM. In addition, the IC50 on IKK1 was 1580 nM; at SYK, 63.1 nM; at JAK3, 2.51 nM.

Regarding `Cc1cc(Nc2cc(C3CC3)[nH]n2)nc(N2CCCCC2)n1` [NEU-0001127], the EC50 in assay [1] is 31.6 nM. Further, the IC50 on IKK1 was 20000 nM; on SYK, 1000 nM; at JAK3 it was 631 nM.

Turning to `O=S1(=O)Cc2ccc(Nc3nccc(-c4ccc(F)cc4)n3)cc2C1` [NEU-0001142], the EC50 in assay [1] is 20 nM. Besides, the IC50 on IKK1 was 631 nM; on SYK it was 501 nM; on JAK3 it was 631 nM.

Consider `O=C(Nc1ccc(-c2ccnc3[nH]ccc23)s1)C1(Cc2ccccc2)CCCNC1` (stereo not shown) [NEU-0001240], for which, in assay [1], the EC50 was 0.794 nM. The IC50 at IKK1 is 1580 nM; on SYK, 20000 nM; on JAK3 it was 501 nM.

On to `Cn1cc(-c2cnc3[nH]cc(-c4cccc(C#N)c4)c3c2)cn1` [NEU-0001207], for which the EC50 in assay [1] is 100 nM. The IC50 at IKK1 was 158 nM; on SYK, 3160 nM; on JAK3, 631 nM.
